Results reported in patent US12699084B2, “Method and means for diagnosing a human sepsis” (Julius-Maximilans-Universität Würzburg, priority 2019, dated 2026).
Like-named read-outs stand apart in the source and are kept apart here.

Experiments:
Type in all cases: cell-based, human
[1] = system: platelets (GPVI-mediated platelet reactivity); assay: Platelet-antibiotic co-incubation in whole blood, P-selectin exposure by flow cytometry; conditions: whole blood of healthy donors, antibiotic at therapeutic peak plasma level, 2 h at 37° C., resting and CRP-XL [0.01 μg/mL] stimulated platelets
Experimental: Antibiotics were added to whole blood of healthy donors. Incubation was performed for 2 h at 37° C. P-selectin exposure was determined subsequently by flow cytometry on resting (A) and CRP-XL [0.01 μg/mL] stimulated platelets (B). The following drugs were used: piperacillin/tazobactam [P/T=298 μg/mL; 4 μg/mL], vancomycin [V=60 μg/mL], metronidazole [M=25 μg/mL], ciprofloxacin [Cx=4.56 μg/mL].
Whole blood was diluted 1:10 in modified HEPES-buffered Tyrode's solution (NaCl 137 mM, NaHCO312 mM, HEPES 5 mM, KCl 2.7 mM, MgCl2 1 mM, Na2HPO4 0.43 mM, glucose 0.1%, BSA 0.36%). Flow cytometry was conducted using a FACSCelesta™ flow cytometer (Becton Dickinson, Franklin Lakes, NJ, USA). Prior to reactivity measurement, platelets were incubated with respective agonists at indicated concentrations for five minutes. Staining of reticulated platelets was performed using thiazole orange (Sigma Aldrich, St. Louis, MO, USA) for 60 min at room temperature protected from light. After antibody addition samples rested for 15 min in the dark until the reaction was stopped with addition of 1.5 mL FACS-Flow sample buffer (Becton Dickinson).
As all sepsis patients received antibiotic therapy, the present inventors next evaluated whether antimicrobial drugs could reduce GPVI/CLEC-2 reactivity.

[2] = system: platelets of Covid-19 patients
[3] = system: washed platelets of sepsis patients; assay: Light transmission aggregometry with washed platelets; conditions: for aggregation at last visit, discharged patients vs patients who died: last available values (discharge/death)
Experimental: Platelet reactivity assays are shown at the following time points: I: admission day, II: day 5-7 and III: day of ICU discharge. (S)=sepsis patient; (HC)=healthy control. (A-H) Platelet integrin activation (A, C, E, G) and P-selectin exposure (B, D, F, H) were measured upon stimulation with CRP-XL [0.01 μg/mL](A-D), Convulxin [0.01 μg/ml] (E, F) and ADP [5 μM] (G, H) in whole blood by flow cytometry. Representative curves upon CRP-XL stimulation at time point I are shown in A and B. (I-N) Light transmission aggregometry was performed using washed platelets [500 000 1/μL]. (I-N) Maximum aggregation is depicted upon stimulation with CRP-XL [0.1 μg/mL] […] (K, L) and TRAP-6 [10 μM] (M, N). Representative curves are shown in FIG. I, K, M. […] Graphs show median±IQR. Differences were analyzed by Kruskal-Wallis test (A-N). n.s. non-significant, *p>0.05, **p>0.01, ***p>0.001, ****p>0.0001
Platelet reactivity of healthy controls (HC) and patients with sepsis (S) is depicted upon stimulation with CRP-XL standard dose [0.1 μg/mL in aggregometry; 0.01 μg/mL in flow cytometry] and CRP-XL high dose (CRP-XLhi) [1 μg/mL] (A-B) Platelet activation due to integrin activation indicated through PAC-1 binding (A) or P-selectin exposure (B) was assessed in whole blood by flow cytometry. (C-D) Light transmission aggregometry was performed using washed platelets [500 000 1/μL]. Samples were measured for 5 minutes. Representative curves are shown in C. (D-E) Platelets were lysed after 5 minutes of CRP-XL stimulation or resting conditions. Staining was performed with phospho-tyrosine antibody 4g10. 72 kDa band intensity was set in relation to a housekeeping protein in arbitrary units (AU). All graphs show median f IQR.
(A) Light transmission aggregometry was performed using washed platelets [500 000 1/μL]. Maximum aggregation is depicted upon stimulation with CRP-XL (C) [0.1 μg/mL] and TRAP-6 [5 μM](T). (B) mean platelet volume. (C) Reticulated platelets indicated as thiazole orange (TO) positive fraction were assessed by flow cytometry. (D) GPVI-ectodomain plasma-levels measured by ELISA. (E) Platelet count. (F) SOFA-Score. All graphs show median f IQR. Differences were analyzed using Kolmogorov-Smirnov test. n.s. non-significant, *p>0.05, **p>0.01,
After centrifugation of whole blood at 152 g for 20 min, platelet rich plasma (PRP) was separated and incubated in acetylsalicylic acid (ASS) for 30 min (final concentration 2 μM). Prostaglandine E1 (1 μM) and apyrase (2 U/mL) were added and platelets were washed with modified HEPES-buffered Tyrode's solution once (1000 g, 10 min). PPP was cryopreserved for further investigation. Afterwards platelet count was adjusted to 500 000 1/μL through resuspension in re-calcified Hepes buffered Tyrode's solution (CaCl2) 2 mM). Light transmission aggregometry was performed using an APACT 4S (LABiTec, Ahrensburg, Germany) aggregometer at 37° C. stirring conditions. Maximum aggregation was assessed in percent in relation to re-calcified Hepes buffered Tyrode's solution as blank. For further molecular analysis platelets were lysed through addition of ice-cold 2× lysis buffer (NaCl150 mM, HEPES 15 mM, EGTA10 mM, Triton X-100 2%, Na3VO4 2 mM, PMSF 1 mM, Aprotinin A 1 mM, Leupeptin 1 mM, Pepstatin 1 mM).

[4] = system: platelets of sepsis patients; assay: Platelet reactivity by flow cytometry in whole blood (PAC-1 binding, CD62P exposure); conditions: sepsis patients vs healthy controls, day of ICU admission; CRP-XL 0.01 μg/mL, convulxin 0.01 μg/mL, ADP 5 μM
Experimental: Platelet reactivity assays are shown at the following time points: I: admission day, II: day 5-7 and III: day of ICU discharge. (S)=sepsis patient; (HC)=healthy control. (A-H) Platelet integrin activation (A, C, E, G) and P-selectin exposure (B, D, F, H) were measured upon stimulation with CRP-XL [0.01 μg/mL](A-D), Convulxin [0.01 μg/ml] (E, F) and ADP [5 μM] (G, H) in whole blood by flow cytometry. […] (I-N) Maximum aggregation is depicted upon stimulation with CRP-XL [0.1 μg/mL] (I, J) rhodocytin [1 nM] (K, L) and TRAP-6 [10 μM] (M, N). […] Graphs show median±IQR. Differences were analyzed by Kruskal-Wallis test (A-N). n.s. non-significant, *p>0.05, **p>0.01, ***p>0.001, ****p>0.0001
Platelet reactivity of healthy controls (HC) and patients with sepsis (S) is depicted upon stimulation with CRP-XL standard dose [0.1 μg/mL in aggregometry; 0.01 μg/mL in flow cytometry] and CRP-XL high dose (CRP-XLhi) [1 μg/mL] (A-B) Platelet activation due to integrin activation indicated through PAC-1 binding (A) or P-selectin exposure (B) was assessed in whole blood by flow cytometry. (C-D) Light transmission aggregometry was performed using washed platelets [500 000 1/μL]. Samples were measured for 5 minutes. […] All graphs show median f IQR. […]

washed platelets = assay: Immunoblot of global tyrosine phosphorylation (4G10) in platelet lysates; conditions: 0.1 μg/mL CRP-XL or 10 nM rhodocytin
Experimental: Washed platelets [500 000 1/μL] of healthy controls (HC) and patients (S) were stimulated with CRP-XL (C) and rhodocytin (R). Lysis was done at the following time points: C: 5 min, R: 10 min. I: admission day, II: day 5-7 and III: day of ICU discharge. (A-C) Western Blot analysis of platelet lysates. Staining was performed with anti-phospho-tyrosine antibody 4g10. 72 kDa band intensity was set in relation to signal intensity of Syk or GAPDH in arbitrary units (AU). Representative blots are shown in figures A (time point I) and B (time point III). (D-F) Phosphorylation of signaling peptides Syk and Lat was investigated by Western blot. One representative blot is shown in D. (G-J) Phosphorylation analysis of ITIM-signaling associated phosphatases SHP-1 and SHP-2. Phospho-protein intensity was set in relation to intensity of unphosphorylated protein shown in H and J. Representative Western blots are shown in G and I. All graphs display median f IQR.
After centrifugation of whole blood at 152 g for 20 min, platelet rich plasma (PRP) was separated and incubated in acetylsalicylic acid (ASS) for 30 min (final concentration 2 μM). Prostaglandine E1 (1 μM) and apyrase (2 U/mL) were added and platelets were washed with modified HEPES-buffered Tyrode's solution once (1000 g, 10 min). […] Maximum aggregation was assessed in percent in relation to re-calcified Hepes buffered Tyrode's solution as blank. […]

## piperacillin/tazobactam
[1]
  impact on GPVI-mediated platelet reactivity (P-selectin exposure): none of these drugs had an impact on GPVI-mediated platelet reactivity

## CN[C@H](CC(C)C)C(=O)N[C@H]1C(=O)N[C@@H](CC(N)=O)C(=O)N[C@H]2C(=O)N[C@H]3C(=O)N[C@H](C(=O)N[C@H](C(=O)O)c4cc(O)cc(O)c4-c4cc3ccc4O)[C@H](O)c3ccc(c(Cl)c3)Oc3cc2cc(c3O[C@@H]2O[C@H](CO)[C@@H](O)[C@H](O)[C@H]2O[C@H]2C[C@](C)(N)[C@H](O)[C@H](C)O2)Oc2ccc(cc2Cl)[C@H]1O [vancomycin]
[1]
  impact on GPVI-mediated platelet reactivity (P-selectin exposure): none of these drugs had an impact on GPVI-mediated platelet reactivity

## O=C(O)c1cn(C2CC2)c2cc(N3CCNCC3)c(F)cc2c1=O [ciprofloxacin]
[1]
  impact on GPVI-mediated platelet reactivity (P-selectin exposure): none of these drugs had an impact on GPVI-mediated platelet reactivity

## TRAP-6
[2]
  platelet reactivity upon stimulation: global hyporeactivity
[3]; sepsis patients
  aggregation at last visit, discharged patients vs patients who died: no differences
[3]; sepsis platelets, day of ICU admission, 10 μM TRAP-6
  aggregation potential, mean: 34.2%
[3]; sepsis platelets, day of ICU admission, 10 μM TRAP-6, every studied patient
  aggregation potential, minimum: ≥ 21.2%

## Cc1ncc([N+](=O)[O-])n1CCO [metronidazole]
[1]
  impact on GPVI-mediated platelet reactivity (P-selectin exposure): none of these drugs had an impact on GPVI-mediated platelet reactivity

## Nc1ncnc2c1ncn2[C@@H]1O[C@H](COP(=O)(O)OP(=O)(O)O)[C@@H](O)[C@H]1O [ADP]
[2]; 19 critically-ill Covid-19 patients, 14 days at ICU
  platelet reactivity upon stimulation: global hyporeactivity
[4]
  platelet activation (PAC-1 binding, CD62P exposure) upon stimulation: platelet reactivity was also highly impaired

B1: convulxin (protein)
chain 1: GLHCPSDWYYYDQHCYRIFNEEMNWEDAEWFCTKQAKGAHLVSIKSAKEADFVAWMVTQNIEESFSHVSIGLRVQNKEKQCSTKWSDGSSVSYDNLLDLYITKCSLLKKETGFRKWFVASCIGKIPFVCKFPPQC
chain 2: GFCCPSHWSSYDRYCYKVFKQEMTWADAEKFCTQQHTGSHLVSFHSTEEVDFVVKMTHQSLKSTFFWIGANNIWNKCNWQWSDGTKPEYKEWHEEFECLISRTFDNQWLSAPCSDTYSFVCKFEA
[4]
  platelet activation (PAC-1 binding, CD62P exposure) upon stimulation: impaired platelet activation was still evident, albeit to a lesser extent compared to CRP-XL

B2: rhodocytin: selective CLEC-2 agonist (protein)
chain 1: GLEDCDFGWSPYDQHCYQAFNEQKTWDEAEKFCRAQENGAHLASIESNGEADFVSWLISQKDELADEDYVWIGLRAQNKEQQCSSEWSDGSSVSYENLIDLHTKKCGALEKLTGFRKWVNYYCEQMHAFVCKLLPY
chain 2: DCPSGWSSYEGHCYKPFNEPKNWADAERFCKLQPKHSHLVSFQSAEEADFVVKLTRPRLKANLVWMGLSNIWHGCNWQWSDGARLNYKDWQEQSECLAFRGVHTEWLNMDCSSTCSFVCKFKA
Washed platelets; platelets of healthy donors
  induction of tyrosine phosphorylation (pTyr bands): readily inducible in healthy donors
Washed platelets; platelets of sepsis patients
  induction of tyrosine phosphorylation (pTyr bands): tyrosine phosphorylation was not inducible in platelets of sepsis patients
[3]; sepsis patients vs healthy controls, time point I, CRP-XL 0.1 μg/ml, rhodocytin 10 nM
  platelet aggregation upon stimulation: abolished aggregation was found in 5/8 patients
[3]; sepsis patients
  aggregation at last visit, discharged patients vs patients who died: no differences
[3]; sepsis patients, time point III (discharge from ICU), CRP-XL 0.1 μg/ml, rhodocytin
  maximum aggregation, recovery at discharge: completely recovered
